Measurements from ChEMBL document CHEMBL1128457, “New antihistamines: substituted piperazine and piperidine derivatives as novel H1-antagonists” (J Med Chem, 1995).
Values belong to the compound of their own block, whether it stands above or below them.

Assays:
[1] = Dissociation constant (KD) of the compound
Cavia porcellus [2] = assay: Compound is tested for protection by antihistamines against histamine-induced lethality in the guinea pig by oral administration with a pretreatment period of 1 h; assay type: functional
[3] = pA2 value is determined compared to standard H1-antagonists; assay type: ADME
Cavia porcellus [4] = assay: Compound is tested for protection by antihistamines against histamine-induced lethality in the guinea pig by oral administration with pretreatment period of 18 h; assay type: functional
[5] = Partition coefficient (logP); assay type: physicochemical; conditions: octanol/water
[6] = target: Histamine H1 receptor (Cavia porcellus) (UniProt P31389); assay: In vitro antagonism of histamine-induced contraction of guinea pig ileum at 1x10E-7M; assay type: functional, tissue-based
Sequence of Histamine H1 receptor (Cavia porcellus) (P31389 whole entry): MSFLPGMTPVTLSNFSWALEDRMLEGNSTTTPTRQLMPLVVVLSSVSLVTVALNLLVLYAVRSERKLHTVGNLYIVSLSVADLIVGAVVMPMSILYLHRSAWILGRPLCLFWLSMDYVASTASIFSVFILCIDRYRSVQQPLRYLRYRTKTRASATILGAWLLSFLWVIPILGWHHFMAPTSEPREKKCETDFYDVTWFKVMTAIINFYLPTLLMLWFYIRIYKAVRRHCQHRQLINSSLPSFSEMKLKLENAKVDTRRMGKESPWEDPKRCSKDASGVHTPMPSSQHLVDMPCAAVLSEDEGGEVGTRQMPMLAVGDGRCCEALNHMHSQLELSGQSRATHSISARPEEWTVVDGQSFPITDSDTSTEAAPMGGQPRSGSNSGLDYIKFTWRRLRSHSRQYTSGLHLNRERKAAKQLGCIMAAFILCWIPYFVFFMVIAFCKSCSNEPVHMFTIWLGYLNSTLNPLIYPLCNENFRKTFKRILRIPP

[7] = target: Histamine H1 receptor (Cavia porcellus) (UniProt P31389); assay: Compound is evaluated for the inhibition of H1-receptor antagonists of histamine-induced skin wheal formation in the guinea pig with a pretreatment interval prior to histamine challenge at 18 h; assay type: functional
[8] = target: Histamine H1 receptor (Cavia porcellus) (UniProt P31389); assay: Compound is evaluated for the inhibition of H1-receptor antagonists of histamine-induced skin wheal formation in the guinea pig with a pretreatment interval prior to histamine challenge at 1 h; assay type: functional
[9] = target: T1, Adrenergic receptor alpha-1 (Homo sapiens, UniProt P35348+P25100+P35368); assay: Compound is evaluated for in vitro receptor binding affinity against Alpha-1 adrenergic receptor; assay type: protein assay, Cavia porcellus
T1 sequence (P35348 whole entry): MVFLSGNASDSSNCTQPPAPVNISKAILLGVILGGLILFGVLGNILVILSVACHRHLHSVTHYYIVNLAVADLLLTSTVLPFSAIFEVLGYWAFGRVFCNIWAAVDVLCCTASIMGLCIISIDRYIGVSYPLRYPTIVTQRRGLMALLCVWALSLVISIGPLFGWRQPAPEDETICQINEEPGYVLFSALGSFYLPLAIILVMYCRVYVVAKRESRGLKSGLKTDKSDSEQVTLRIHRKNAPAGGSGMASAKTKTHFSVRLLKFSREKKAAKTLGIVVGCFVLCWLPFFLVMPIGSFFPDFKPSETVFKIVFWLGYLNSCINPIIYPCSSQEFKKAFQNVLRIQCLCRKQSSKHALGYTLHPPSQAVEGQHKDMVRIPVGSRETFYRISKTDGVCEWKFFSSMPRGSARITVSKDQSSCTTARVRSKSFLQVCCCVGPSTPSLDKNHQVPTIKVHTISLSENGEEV
T1 sequence (P25100 whole entry): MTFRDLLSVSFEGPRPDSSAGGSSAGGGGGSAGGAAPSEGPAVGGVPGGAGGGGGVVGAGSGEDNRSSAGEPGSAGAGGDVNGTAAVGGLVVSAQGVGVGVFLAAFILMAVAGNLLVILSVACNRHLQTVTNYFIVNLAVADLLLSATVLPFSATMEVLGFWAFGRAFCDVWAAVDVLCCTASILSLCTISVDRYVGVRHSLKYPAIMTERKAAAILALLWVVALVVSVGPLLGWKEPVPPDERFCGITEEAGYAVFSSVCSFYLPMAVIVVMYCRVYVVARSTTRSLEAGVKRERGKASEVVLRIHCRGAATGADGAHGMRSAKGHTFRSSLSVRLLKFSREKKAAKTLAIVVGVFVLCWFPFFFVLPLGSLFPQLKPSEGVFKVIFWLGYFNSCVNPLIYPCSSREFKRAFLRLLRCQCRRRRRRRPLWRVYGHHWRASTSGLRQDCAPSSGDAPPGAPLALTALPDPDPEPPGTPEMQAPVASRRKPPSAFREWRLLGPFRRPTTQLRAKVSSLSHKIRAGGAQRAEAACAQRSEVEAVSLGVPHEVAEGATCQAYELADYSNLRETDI
T1 sequence (P35368 whole entry): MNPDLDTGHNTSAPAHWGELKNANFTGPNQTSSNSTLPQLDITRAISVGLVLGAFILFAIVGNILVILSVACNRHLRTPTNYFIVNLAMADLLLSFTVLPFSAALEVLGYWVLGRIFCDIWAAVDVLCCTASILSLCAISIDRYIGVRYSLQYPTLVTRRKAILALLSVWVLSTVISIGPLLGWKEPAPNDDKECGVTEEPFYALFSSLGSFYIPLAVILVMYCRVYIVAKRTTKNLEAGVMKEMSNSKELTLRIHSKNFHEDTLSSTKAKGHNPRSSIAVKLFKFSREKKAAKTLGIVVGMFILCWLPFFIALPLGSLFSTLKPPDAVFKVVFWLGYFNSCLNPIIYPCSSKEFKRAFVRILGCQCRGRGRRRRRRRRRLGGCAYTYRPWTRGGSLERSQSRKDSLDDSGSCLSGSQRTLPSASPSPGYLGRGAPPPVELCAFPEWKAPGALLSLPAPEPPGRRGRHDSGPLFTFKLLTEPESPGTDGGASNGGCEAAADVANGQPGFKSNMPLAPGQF

[10] = target: T2, Muscarinic acetylcholine receptor M1 (Homo sapiens, UniProt P11229); assay: Compound is evaluated for in vitro receptor binding affinity against Muscarinic acetylcholine receptor M1; design: species or system Cavia porcellus
T2 sequence (P11229 whole entry): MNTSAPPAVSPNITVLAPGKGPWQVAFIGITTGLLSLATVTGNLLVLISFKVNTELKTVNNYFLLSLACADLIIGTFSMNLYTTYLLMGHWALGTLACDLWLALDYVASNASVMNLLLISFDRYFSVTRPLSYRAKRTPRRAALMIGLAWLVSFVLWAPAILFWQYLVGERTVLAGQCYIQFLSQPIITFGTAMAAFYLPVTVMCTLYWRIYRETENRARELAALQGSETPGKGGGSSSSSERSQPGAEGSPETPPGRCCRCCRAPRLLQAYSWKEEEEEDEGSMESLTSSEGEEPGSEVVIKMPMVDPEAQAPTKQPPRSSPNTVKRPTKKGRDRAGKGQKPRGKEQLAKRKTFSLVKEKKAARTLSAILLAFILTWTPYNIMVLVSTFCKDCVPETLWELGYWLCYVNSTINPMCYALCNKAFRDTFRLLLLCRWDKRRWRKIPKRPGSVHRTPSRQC

D(2) dopamine receptor = D(2) dopamine receptor (Homo sapiens, UniProt P14416); assay: Compound is evaluated for in vitro receptor binding affinity against Dopamine receptor D2; design: species or system Cavia porcellus
Sequence of D(2) dopamine receptor (P14416 whole entry): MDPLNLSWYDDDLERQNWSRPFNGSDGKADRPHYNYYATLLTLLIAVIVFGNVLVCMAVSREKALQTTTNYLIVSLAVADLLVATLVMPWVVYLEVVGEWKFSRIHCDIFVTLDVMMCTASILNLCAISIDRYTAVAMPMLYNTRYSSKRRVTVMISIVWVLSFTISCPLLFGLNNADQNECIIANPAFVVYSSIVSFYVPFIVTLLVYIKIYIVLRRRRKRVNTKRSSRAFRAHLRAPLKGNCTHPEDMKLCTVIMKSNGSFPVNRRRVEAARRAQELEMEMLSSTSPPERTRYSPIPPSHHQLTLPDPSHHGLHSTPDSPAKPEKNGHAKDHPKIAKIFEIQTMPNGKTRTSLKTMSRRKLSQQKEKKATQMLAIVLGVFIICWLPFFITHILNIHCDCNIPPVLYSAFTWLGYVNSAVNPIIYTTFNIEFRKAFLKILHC

[11] = target: T3, Muscarinic acetylcholine receptor M2 (Homo sapiens, UniProt P08172); assay: Compound is evaluated for in vitro receptor binding affinity against Muscarinic acetylcholine receptor M2; design: species or system Cavia porcellus
T3 sequence (P08172 whole entry): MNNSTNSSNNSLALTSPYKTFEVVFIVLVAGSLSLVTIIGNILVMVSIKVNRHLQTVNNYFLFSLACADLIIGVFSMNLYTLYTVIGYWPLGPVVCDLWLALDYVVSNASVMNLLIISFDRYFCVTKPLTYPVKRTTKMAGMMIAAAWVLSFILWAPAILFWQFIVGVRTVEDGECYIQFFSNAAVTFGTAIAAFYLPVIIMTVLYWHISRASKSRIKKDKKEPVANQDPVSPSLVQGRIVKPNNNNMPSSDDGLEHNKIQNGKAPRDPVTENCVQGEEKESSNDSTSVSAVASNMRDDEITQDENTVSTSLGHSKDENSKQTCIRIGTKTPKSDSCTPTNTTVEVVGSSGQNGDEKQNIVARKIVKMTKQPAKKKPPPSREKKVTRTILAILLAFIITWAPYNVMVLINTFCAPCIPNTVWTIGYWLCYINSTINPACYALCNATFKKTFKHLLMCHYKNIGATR

[12] = Potency relative to 7-[3-(4-Benzhydryloxy-piperidine-1-yl)-propyl]-1,3-dimethyl-3,7-dihydro-purine-2,6-dione; Relative potency = […]/[…]
Histamine H1 receptor = Histamine H1 receptor (Cavia porcellus, UniProt P31389); assay: Compound is evaluated for in vitro receptor binding affinity against H1 receptor
Sequence of Histamine H1 receptor (P31389 whole entry): as the sequence (P31389 whole entry) above

[13] = target: T4, 5-hydroxytryptamine receptor 1A (Homo sapiens, UniProt P08908); assay: Compound is evaluated for in vitro receptor binding affinity against 5-hydroxytryptamine 1A receptor; design: species or system Cavia porcellus
T4 sequence (P08908 whole entry): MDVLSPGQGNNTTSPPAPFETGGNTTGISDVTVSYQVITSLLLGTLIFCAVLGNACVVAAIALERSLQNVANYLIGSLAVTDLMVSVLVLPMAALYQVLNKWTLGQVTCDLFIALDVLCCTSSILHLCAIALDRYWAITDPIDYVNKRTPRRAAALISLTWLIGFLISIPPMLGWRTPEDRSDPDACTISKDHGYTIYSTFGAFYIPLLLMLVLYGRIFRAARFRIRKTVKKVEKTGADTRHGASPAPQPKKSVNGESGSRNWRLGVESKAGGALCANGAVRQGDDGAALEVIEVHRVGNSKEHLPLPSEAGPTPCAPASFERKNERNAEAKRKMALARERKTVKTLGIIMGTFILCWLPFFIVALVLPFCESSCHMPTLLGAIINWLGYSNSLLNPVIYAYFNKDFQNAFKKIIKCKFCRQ

SMILES: CC(C)(C)c1ccc(C(=O)CCCN2CCC(OC(c3ccccc3)c3ccccc3)CC2)cc1 [EBASTINE]
- Kd [1]: 0.004 µM
- ED50 (Cavia porcellus [2]): 0.45 mg/kg
- pA2 [3]: 7.4
- ED50 (Cavia porcellus [4]): 1.71 mg/kg
- logP [5]: 2.74

- inhibition [6]: 29%
SMILES: Cn1c(=O)c2c(ncn2CCCN2CCN(C(c3ccccc3)c3ccc(Cl)cc3)CC2)n(C)c1=O (centres undefined)

- Kd [1]: 0.033 µM
SMILES: CC(C)(C)c1ccc(C(O)CCCN2CCC(C(O)(c3ccccc3)c3ccccc3)CC2)cc1 (centres undefined) [TERFENADINE]

- inhibition [6]: 50%
SMILES: Cn1c(=O)c2c(ncn2CCCN2CCN(c3ccc(Cl)nn3)CC2)n(C)c1=O

- inhibition [6]: 76%
SMILES: O=C1C2C3C=CC(C4CC34)C2C(=O)N1CCCCN1CCN(c2ccc(Cl)nn2)CC1 (centres undefined)

- inhibition [6]: 77%
SMILES: O=C1CC2(CCCC2)CC(=O)N1CCCCN1CCN(C(c2ccc(F)cc2)c2ccc(F)cc2)CC1

- inhibition [6]: 29%
SMILES: Cn1c(=O)c2c(ncn2CCCN2CCN(c3cncc(Cl)n3)CC2)n(C)c1=O

- inhibition [6]: < 10%
SMILES: O=C1C2C3C=CC(C4CC34)C2C(=O)N1CCN1CCN(C(c2ccccc2)c2ccccc2)CC1 (centres undefined)

- inhibition [6]: 50%
SMILES: O=C1C2C3C=CC(C4CC34)C2C(=O)N1CCCCN1CCN(C(c2ccccc2)c2ccccc2)CC1 (centres undefined)

- inhibition [6]: < 10%
SMILES: O=C1C2C3C=CC(C4CC34)C2C(=O)N1CCN1CCN(C(c2ccc(F)cc2)c2ccc(F)cc2)CC1 (centres undefined)

- Kd [1]: 0.0037 µM
- ED50 [7]: 1.07 mg/kg
- ED50 [8]: 0.79 mg/kg
SMILES: CN(C)CCC(c1ccc(Cl)cc1)c1ccccn1 (centres undefined) [CHLORPHENIRAMINE]
- pA2 [3]: 8.4

SMILES: Cl.Cl.Cn1c(=O)c2c(ncn2CCCN2CCN(C(c3ccc(F)cc3)c3ccc(F)cc3)CC2)n(C)c1=O
- IC50 [9]: 0.059 µM
- Kd [1]: 0.0066 µM
- IC50 [10]: 0.67 µM
- ED50 [8]: 0.45 mg/kg
- ED50 (Cavia porcellus [2]): 1.96 mg/kg
- pA2 [3]: 8.2
- % inhibition (D(2) dopamine receptor): 43%
- logP [5]: 1.81
- IC50 [11]: > 10 µM
- Relative potency [12]: 0.0012
- inhibition [6]: 92%
- IC50 (Histamine H1 receptor): 0.22 µM
- % inhibition [13]: 38%

- inhibition [6]: 98%
SMILES: O=C1C2C3C=CC(C4CC34)C2C(=O)N1CCCCN1CCN(C(c2ccc(F)cc2)c2ccc(F)cc2)CC1 (centres undefined)

- inhibition [6]: 14%
SMILES: Cn1c(=O)c2c(ncn2CCCCN2CCN(C(c3ccc(Cl)cc3)c3ccc(Cl)cc3)CC2)n(C)c1=O

- Kd [1]: 0.0055 µM
- ED50 [8]: 0.53 mg/kg
SMILES: COc1ccc(CCN2CCC(Nc3nc4ccccc4n3Cc3ccc(F)cc3)CC2)cc1 [ASTEMIZOLE]
- pA2 [3]: 8.3

- inhibition [6]: < 10%
SMILES: O=C1C2C3C=CC(C4CC34)C2C(=O)N1CCCN1CCN(C(c2ccccc2)c2ccc(Cl)cc2)CC1 (centres undefined)

- inhibition [6]: < 10%
SMILES: Cn1c(=O)c2c(ncn2CCCN2CCN(c3nccnc3Cl)CC2)n(C)c1=O

- inhibition [6]: 29%
SMILES: O=C1C2C3C=CC(C4CC34)C2C(=O)N1CCCN1CCN(C(c2ccc(F)cc2)c2ccc(F)cc2)CC1 (centres undefined)
